Patent publication US20140309192A1, “MODULATORS OF THE G PROTEIN-COUPLED MAS RECEPTOR AND THE TREATMENT OF DISORDERS RELATED THERETO” (ARENA PHARMACEUTICALS, INC., priority 2011, published 2014)
Structures can show the parent of a compound that is named as a salt.

Assay: Dynamic moisture-sorption (DMS)
Format: physicochemical
Conditions: for hygroscopicity (DMS) / total weight gain from the dried state (DMS): 25° C.; for weight gain at 90% RH and 25° C. (DMS): after a drying period
Procedure: A dynamic moisture-sorption (DMS) study was conducted using a dynamic moisture-sorption analyzer, VTI Corporation, SGA-100. Samples were prepared for DMS analysis by placing 5 mg to 20 mg of a sample in a tared sample holder. The sample was placed on the hang-down wire of the VTI balance. A drying step was run, typically at 40° C. and 0.5-1% RH for 1 h. The isotherm temperature is 25° C. Defined % RH holds typically ranged from 10% RH to 90% RH, with intervals of 10 to 20% RH. A % weight change smaller than 0.010% over 10 min, or up to 2 h, whichever occurred first, was required before continuing to the next % RH hold. The water content of the sample equilibrated as described above was determined at each % RH hold.

Row | Compound | hygroscopicity (DMS) | weight gain at 90% RH and 25° C. (DMS) | total weight gain from the dried state (DMS) | water picked up from 30% RH to 90% RH at 25° C. (DMS)
1 | NC(=O)[C@H](CO)NCc1ccc(C(=O)Nc2ccc(Cl)cc2N2CCN(CCC(F)(F)F)CC2)c(F)c1F [Compound 170 (Example 2.5B)] | FIG. 11: This polymorph of the free base is non-hygroscopic, | increasing ~0.1% weight at 90% RH and 25 °C | – | –
2 | NC(=O)[C@H](CO)NCc1ccc(C(=O)Nc2ccc(Cl)cc2N2CCN(CCC(F)(F)F)CC2)c(F)c1F [Compound 170, (S)-4-((1-Amino-3-hydroxy-1-oxopropan-2-ylamino)methyl)-N-(4-chloro-2-(4-(3,3,3-trifluoropropyl)piperazin-1-yl)phenyl)-2,3-difluorobenzamide] | non-hygroscopic | ~0.1% | – | –
3 | NC(=O)[C@H](CO)NCc1ccc(C(=O)Nc2ccc(Cl)cc2N2CCN(CCC(F)(F)F)CC2)c(F)c1F [Compound 170 dihydrochloride solvate] | – | – | The total weight gain from the dried state was about 2%, thus | –
4 | NC(=O)[C@H](CO)NCc1ccc(C(=O)Nc2ccc(Cl)cc2N2CCN(CCC(F)(F)F)CC2)c(F)c1F [Compound 170 dihydrochloride hydrate] | – | – | dried state was about 2.5%. The sample picked up only about | 0.7% water from 30% RH to 90% RH at 25 °C
5 | Cl.Cl.NC(=O)[C@H](CO)NCc1ccc(C(=O)Nc2ccc(Cl)cc2N2CCN(CCC(F)(F)F)CC2)c(F)c1F [Compound 170 dihydrochloride, (S)-4-((1-amino-3-hydroxy-1-oxopropan-2-ylamino)methyl)-N-(4-chloro-2-(4-(3,3,3-trifluoropropyl)piperazin-1-yl)phenyl)-2,3-difluorobenzamide dihydrochloride] | – | drying period, was about 3.4%. It was shown by PXRD of the | – | –
